We go through one compound from PMC6237158, “HPLC–UV assay for the evaluation of inhibitors of plasma amine oxidase using crude bovine plasma” (Journal of Enzyme Inhibition and Medicinal Chemistry, 2018).

As usually defined, the IC50 is the concentration that inhibits the measured activity by half.

Assay [1] concerns the target T1, PAO in bovine plasma (Bos taurus, UniProt Q29437).
T1 construct: crude bovine plasma can be used as enzyme source in this assay instead of the purified enzyme; tissue Coesfelder Fleischhandelsgesellschaft, Bernd Grewe (Coesfeld, Germany); host or cells: heparinised bovine blood plasma
T1 sequence (Q29437 17-762): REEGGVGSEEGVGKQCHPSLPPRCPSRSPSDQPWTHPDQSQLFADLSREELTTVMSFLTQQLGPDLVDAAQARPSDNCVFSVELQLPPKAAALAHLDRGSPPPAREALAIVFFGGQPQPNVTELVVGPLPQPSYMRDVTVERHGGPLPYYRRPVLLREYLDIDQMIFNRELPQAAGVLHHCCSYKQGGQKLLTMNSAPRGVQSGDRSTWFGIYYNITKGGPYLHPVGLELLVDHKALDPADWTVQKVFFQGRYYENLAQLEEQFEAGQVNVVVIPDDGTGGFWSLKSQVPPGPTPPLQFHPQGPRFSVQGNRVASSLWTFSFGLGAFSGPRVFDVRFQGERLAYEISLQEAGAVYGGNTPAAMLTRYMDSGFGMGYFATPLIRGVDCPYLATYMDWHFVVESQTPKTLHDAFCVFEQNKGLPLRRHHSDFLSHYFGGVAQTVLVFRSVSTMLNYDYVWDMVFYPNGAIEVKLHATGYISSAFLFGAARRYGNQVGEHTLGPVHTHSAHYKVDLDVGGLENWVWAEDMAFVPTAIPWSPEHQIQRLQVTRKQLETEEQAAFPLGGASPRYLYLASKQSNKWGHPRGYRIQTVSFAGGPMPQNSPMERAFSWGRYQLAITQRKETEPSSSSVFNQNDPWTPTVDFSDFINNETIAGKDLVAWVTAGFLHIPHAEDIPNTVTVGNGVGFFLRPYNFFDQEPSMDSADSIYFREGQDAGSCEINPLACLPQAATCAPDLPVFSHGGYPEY
In words: Inhibitor screening with pre-incubation of bovine plasma with the inhibitor (HPLC-UV). It counts as biochemical. The following applies: with pre-incubation of enzyme and inhibitor (15 min, 37 °C), n = 3. As for the experimental part:
General procedure for inhibitor screening with pre-incubation of bovine plasma with the inhibitor. To a DMSO solution of the appropriate inhibitor (concentration variable) (2.5 µL) was added a dilution of bovine plasma in PBS (95 µL), prepared by mixing 89 volume parts of PBS with 6 volume parts of bovine plasma. The resulting mixture was pre-incubated at 37 °C for 15 min. Then the incubation was started at 37 °C by addition of a solution of the substrate 4 (10 mM) in DMSO (2.5 µL). After 45 min, the enzyme reaction was terminated by the addition of acetonitrile (100 µL). The samples were further treated and analysed as described above in the inhibition experiments done without pre-incubation. Controls (n = 3) and a blank were prepared analogously. The experiments using benzylamine (7) as substrate were carried out in the same way with the modifications that aliquots (150 µL) of the supernatants obtained after addition of acetonitrile and centrifugation were diluted with water (150 µL), and acetonitrile/aqueous ammonium acetate solution (10 mM, pH 6) (45:55, v/v) was used as eluent at a detection wavelength of 250 nm.

The target in assay [2] is T2, purified PAO (Bos taurus, UniProt Q29437).
T2 construct: we used the enzyme isolated and purified from bovine plasma; host or cells: bovine plasma
T2 sequence (Q29437 17-762): T1 sequence (Q29437 17-762)
On the set-up: method as in PMID 29550344. The following applies: after pre-incubation 15 min, read-out: IC50, purified enzyme, cited from earlier work.

The structures appear in SMILES notation. Like-named read-outs stand apart in the source and are kept apart here.

In the case of `NNC(=O)Cc1ccc(-c2ccccc2)cc1` [Compound 16, 2-(4-phenylphenyl)acetohydrazide], the IC50 in assay [1] (substrate benzylamine) was 130 ± 30 nM; in assay [1] (substrate hexan-1-amine 4), 230 ± 40 nM; in assay [2] (substrate 4), 290 nM; in assay [2] (substrate benzylamine), 110 nM.
